This note sets out measurements from article PMC8279409, “Novel Mixed NOP/Opioid Receptor Peptide Agonists” (Journal of Medicinal Chemistry, 2021).

One assay has as its target T1, human NOP receptor (Homo sapiens, UniProt P41146).
T1 construct: expressed in transfected cells; host or cells: CHO cells stably coexpressing the receptor and chimeric Gαqi5
Briefly: Calcium mobilization, NOP receptor. The assay is classed as cell-based. As to conditions: for Emax: mean ± SEM of at least three experiments in duplicate, SEM; for NOP pEC50 (CL95%): CHO cells coexpressing human NOP and Gαqi5, Fluo-4 AM, 37 °C, mean of at least three experiments in duplicate, CL95% in brackets; for NOP/mu CR (concentration ratio): calcium mobilization, NOP versus mu. The method, then: CHO cells stably coexpressing the human NOP or kappa or the mu receptor and the C-terminally modified Gαqi5 and CHO cells coexpressing the delta receptor and the GαqG66Di5 protein were generated and cultured as described previously.[45],[46] Cells were maintained in Dulbecco’s modified Eagle’s medium/nutrient mixture F-12 (DEMEM/F-12) supplemented with 10% FBS, 100 U/mL penicillin and 100 μg/mL streptomycin, 100 μg/mL hygromicin B, and 200 μg/mL G418 and cultured at 37 °C in 5% CO2 humidified air. Cells were seeded at a density of 50,000 cells/well into 96-well black, clear-bottom plates. The following day, the cells were incubated with Hanks’ balanced salt solution (HBSS) supplemented with 2.5 mM probenecid, 3 μM of the calcium-sensitive fluorescent dye Fluo-4 AM, and 0.01% pluronic acid for 30 min at 37 °C. After that time, the loading solution was aspirated and 100 μL/well of HBSS supplemented with 20 mM HEPES, 2.5 mM probenecid, and 500 μM brilliant black was added. Serial dilutions were carried out in HBSS/HEPES (20 mM) buffer (containing 0.02% BSA fraction V). After placing both plates (cell culture and master plate) into the fluorometric imaging plate reader FlexStation II (Molecular Devices, Sunnyvale, CA), fluorescence changes were measured. On-line additions were carried out in a volume of 50 μL/well. To facilitate drug diffusion into the wells, the present studies were performed at 37 °C. Maximum change in fluorescence, expressed as percent over the baseline fluorescence, was used to determine agonist response.
The pharmacological terminology adopted in this paper is consistent with IUPHAR recommendations.[59] All data are expressed as the mean ± standard error of the mean (SEM) of at least three experiments performed in duplicate. […] Concentration-response curves to agonists were fitted to the classical four-parameter logistic nonlinear regression model:
Effect = Baseline + (Emax – Baseline)/(1 + 10^(LogEC50 – Log[compound]) × Hillslope). Curve fitting was performed using PRISM 6.0 (GraphPad Software Inc., San Diego).
In general terms: A change in cytosolic calcium serves as a functional read-out for many receptors and channels.

Another assay has as its target T2, human mu receptor (Homo sapiens, UniProt P35372).
T2 construct: expressed in transfected cells; host or cells: CHO cells stably coexpressing the receptor and chimeric Gαqi5
Description: Calcium mobilization, mu opioid receptor. In kind it is cell-based. As to conditions: for Emax / activation at 10 µM: percent over the baseline fluorescence, SEM; for Emax: mean ± SEM of at least three experiments in duplicate; for mu pEC50 (CL95%): CHO cells coexpressing human mu receptor and Gαqi5, Fluo-4 AM, 37 °C, mean of at least three experiments in duplicate, CL95% in brackets; for pEC50_mu: molecular formula strings CSV, repeats calcium mobilization values of Tables 1-3; for activation at 10 µM: mean ± SEM.

The mark [1] stands for this setting: read-out: NOP Emax ± S.E.M., Table 3 series, percent over the baseline fluorescence.
The mark [2] stands for this setting: read-out: mu Emax ± S.E.M., Table 3 series.
Where [3] appears, read: read-out: NOP Emax ± S.E.M., Table 2 series, percent over the baseline fluorescence.
Where [4] appears, read: read-out: mu effect at 10 μM (crc incomplete), Table 2 series.
Where [5] appears, read: read-out: mu Emax ± S.E.M., Table 2 series.

Like-named read-outs stand apart in the source and are kept apart here. Where a SMILES comes first, the peptide text is derived from it. Where no end group is shown, it is not given here. [ ]: non-standard residue; d: D form. Bip = N[C@@H](Cc1ccc(-c2ccccc2)cc1)C(=O)O; Dip = N[C@H](C(=O)O)C(c1ccccc1)c1ccccc1; Phe(4-NH2) = Nc1ccc(C[C@H](N)C(=O)O)cc1; Phe(4-F) = N[C@@H](Cc1ccc(F)cc1)C(=O)O; Dmt = Cc1cc(O)cc(C)c1C[C@H](N)C(=O)O; hPhe = N[C@@H](CCc1ccccc1)C(=O)O; Phg = N[C@H](C(=O)O)c1ccccc1; Dab = NCC[C@H](N)C(=O)O

T1 sequence (P41146 whole entry): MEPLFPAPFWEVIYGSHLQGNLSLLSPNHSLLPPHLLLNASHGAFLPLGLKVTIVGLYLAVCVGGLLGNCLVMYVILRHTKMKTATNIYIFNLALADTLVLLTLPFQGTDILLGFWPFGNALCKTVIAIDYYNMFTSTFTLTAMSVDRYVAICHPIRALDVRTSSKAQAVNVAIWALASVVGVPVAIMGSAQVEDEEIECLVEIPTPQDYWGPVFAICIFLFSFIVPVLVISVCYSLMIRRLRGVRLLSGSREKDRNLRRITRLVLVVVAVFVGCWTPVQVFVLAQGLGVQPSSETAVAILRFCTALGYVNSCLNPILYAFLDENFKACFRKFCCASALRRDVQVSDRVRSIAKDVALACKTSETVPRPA
T2 sequence (P35372 whole entry): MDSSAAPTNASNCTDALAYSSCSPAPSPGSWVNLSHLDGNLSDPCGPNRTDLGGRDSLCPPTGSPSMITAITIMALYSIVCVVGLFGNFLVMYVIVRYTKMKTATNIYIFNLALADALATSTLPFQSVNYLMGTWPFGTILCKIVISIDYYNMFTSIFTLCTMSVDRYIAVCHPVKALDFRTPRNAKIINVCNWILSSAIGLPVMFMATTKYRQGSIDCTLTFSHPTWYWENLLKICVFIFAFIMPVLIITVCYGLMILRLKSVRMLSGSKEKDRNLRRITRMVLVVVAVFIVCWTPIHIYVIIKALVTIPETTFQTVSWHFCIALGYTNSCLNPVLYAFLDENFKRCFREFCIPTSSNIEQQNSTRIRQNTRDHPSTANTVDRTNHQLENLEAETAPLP

Turning to `Cc1cc(O)cc(C)c1C[C@H](N)C(=O)NCC(=O)NCC(=O)N[C@@H](Cc1ccccc1)C(=O)N[C@@H](Cc1ccc(N)cc1)C(=O)NCC(=O)N[C@@H](C)C(=O)N[C@@H](CCCNC(=N)N)C(=O)N[C@@H](CCCCN)C(=O)N[C@@H](CO)C(=O)N[C@@H](C)C(=O)N[C@@H](CCCNC(=N)N)C(=O)N[C@@H](CCCCN)C(N)=O` [Compound 34, [Dmt^1,(pNH2)Phe^5]N/OFQ(1-13)-NH2] (H-[Dmt]GGF[Phe(4-NH2)]GARKSARK-NH2), the Emax (as a rule, the size of the effect at its maximum, as opposed to the concentration needed) at human NOP receptor (setting [1]) was found to be 258 ± 20%; on human mu receptor (setting [2]) it was 358 ± 15%.
For the compound `C[C@H](NC(=O)CNC(=O)[C@H](Cc1ccc(-c2ccccc2)cc1)NC(=O)[C@H](Cc1ccccc1)NC(=O)CNC(=O)CNC(=O)[C@@H](N)Cc1ccc(O)cc1)C(=O)N[C@@H](CCCNC(=N)N)C(=O)N[C@@H](CCCCN)C(=O)N[C@@H](CO)C(=O)N[C@@H](C)C(=O)N[C@@H](CCCNC(=N)N)C(=O)N[C@@H](CCCCN)C(N)=O` [Compound 24, [Tyr^1,Bip^5]N/OFQ(1-13)-NH2] (H-YGGF[Bip]GARKSARK-NH2), at human NOP receptor (Table 2 series), the “NOP pEC50 (CL95%)” value was 6.93 (6.63–7.22) and the “NOP/mu CR (concentration ratio)” value was 0.15. Moreover, the maximal effect (Emax) at human NOP receptor (setting [3]) came to 272 ± 29%. The “mu pEC50 (CL95%)” value at human mu receptor (Table 2 series) is “crc incomplete; 10 μM: 151 ± 66”. In addition, on human mu receptor, the pEC50_mu result is given as “crc incomplete”. For the same compound, at human mu receptor (setting [4]), the activation at 10 µM amounted to 151 ± 66%.
Consider “YGGFFGARKSARK-NH2 [Compound 15, [Tyr^1,Phe^5]N/OFQ(1-13)-NH2]”, for which the “NOP pEC50 (CL95%)” value on human NOP receptor (Table 2 series) is reported as 7.72 (7.56–7.87). Moreover, at human NOP receptor (Table 2 series), the “NOP/mu CR (concentration ratio)” value worked out at 0.05. The Emax is 242 ± 11% on human NOP receptor (setting [3]) and 315 ± 32% on human mu receptor (setting [5]). At human mu receptor (Table 2 series), the “mu pEC50 (CL95%)” value is given as 6.41 (5.85–6.97).
Regarding `C[C@H](NC(=O)CNC(=O)[C@H](CCN)NC(=O)[C@H](Cc1ccccc1)NC(=O)CNC(=O)CNC(=O)[C@@H](N)Cc1ccc(O)cc1)C(=O)N[C@@H](CCCNC(=N)N)C(=O)N[C@@H](CCCCN)C(=O)N[C@@H](CO)C(=O)N[C@@H](C)C(=O)N[C@@H](CCCNC(=N)N)C(=O)N[C@@H](CCCCN)C(N)=O` [Compound 10, [Tyr^1,Dab^5]N/OFQ(1-13)-NH2] (H-YGGF[Dab]GARKSARK-NH2), the “NOP pEC50 (CL95%)” value on human NOP receptor (Table 1 series, FlexStation II) is 6.43 (6.28–6.58). Also, the “NOP/mu CR (concentration ratio)” value on human NOP receptor (Table 1 series) is 0.37. Also, at human NOP receptor (read-out: NOP Emax ± S.E.M., Table 1 series, maximum change in fluorescence as percent over the baseline fluorescence), the maximal response (Emax) amounted to 340 ± 22%. Moreover, the “mu pEC50 (CL95%)” value on human mu receptor (Table 1 series) is “crc incomplete; 10 μM: 41 ± 4”. Besides, the pEC50_mu entry on human mu receptor was “crc incomplete”. In addition, at human mu receptor (read-out: mu effect at 10 μM (crc incomplete), Table 1 series), the activation at 10 µM came out at 41 ± 4%.
In the case of `C[C@H](NC(=O)CNC(=O)[C@H](CCc1ccccc1)NC(=O)[C@H](Cc1ccccc1)NC(=O)CNC(=O)CNC(=O)[C@@H](N)Cc1ccc(O)cc1)C(=O)N[C@@H](CCCNC(=N)N)C(=O)N[C@@H](CCCCN)C(=O)N[C@@H](CO)C(=O)N[C@@H](C)C(=O)N[C@@H](CCCNC(=N)N)C(=O)N[C@@H](CCCCN)C(N)=O` [Compound 18, [Tyr^1,hPhe^5]N/OFQ(1-13)-NH2] (H-YGGF[hPhe]GARKSARK-NH2), at human NOP receptor (Table 2 series), the “NOP pEC50 (CL95%)” value is reported as 8.70 (8.24–9.16) and the “NOP/mu CR (concentration ratio)” value turned out to be 0.003. On human NOP receptor (setting [3]), the maximal response (Emax) was 301 ± 26%. Further, at human mu receptor (Table 2 series), the “mu pEC50 (CL95%)” value was “crc incomplete; 10 μM: 228 ± 29”. In addition, the pEC50_mu result on human mu receptor is listed as “crc incomplete”. Further, the activation at 10 µM on human mu receptor (setting [4]) was determined as 228 ± 29%.
Regarding `Cc1cc(O)cc(C)c1C[C@H](N)C(=O)NCC(=O)NCC(=O)N[C@@H](Cc1ccccc1)C(=O)N[C@@H](Cc1ccccc1)C(=O)NCC(=O)N[C@@H](C)C(=O)N[C@@H](CCCNC(=N)N)C(=O)N[C@@H](CCCCN)C(=O)N[C@@H](CO)C(=O)N[C@@H](C)C(=O)N[C@@H](CCCNC(=N)N)C(=O)N[C@@H](CCCCN)C(N)=O` [Compound 31, [Dmt^1,Phe^5]N/OFQ(1-13)-NH2] (H-[Dmt]GGFFGARKSARK-NH2), the results for the Emax on human NOP receptor (setting [1]) and on human mu receptor (setting [2]) were 277 ± 28% and 335 ± 22%, respectively.
Consider `C[C@H](NC(=O)CNC(=O)[C@@H](NC(=O)[C@H](Cc1ccccc1)NC(=O)CNC(=O)CNC(=O)[C@@H](N)Cc1ccc(O)cc1)C(c1ccccc1)c1ccccc1)C(=O)N[C@@H](CCCNC(=N)N)C(=O)N[C@@H](CCCCN)C(=O)N[C@@H](CO)C(=O)N[C@@H](C)C(=O)N[C@@H](CCCNC(=N)N)C(=O)N[C@@H](CCCCN)C(N)=O` [Compound 23, [Tyr^1,Dip^5]N/OFQ(1-13)-NH2] (H-YGGF[Dip]GARKSARK-NH2), for which, on human NOP receptor (Table 2 series), the “NOP pEC50 (CL95%)” value is on record as 6.61 (6.13–7.09) and the “NOP/mu CR (concentration ratio)” value came out at 1.48. Also, at human NOP receptor (setting [3]), the Emax worked out at 240 ± 26%. The “mu pEC50 (CL95%)” value on human mu receptor (Table 2 series) is on record as 6.78 (6.28–7.27). Also, the maximal response (Emax) at human mu receptor (setting [5]) stood at 331 ± 32%.
Consider `C[C@H](NC(=O)CNC(=O)[C@@H](NC(=O)[C@H](Cc1ccccc1)NC(=O)CNC(=O)CNC(=O)[C@@H](N)Cc1ccc(O)cc1)c1ccccc1)C(=O)N[C@@H](CCCNC(=N)N)C(=O)N[C@@H](CCCCN)C(=O)N[C@@H](CO)C(=O)N[C@@H](C)C(=O)N[C@@H](CCCNC(=N)N)C(=O)N[C@@H](CCCCN)C(N)=O` [Compound 19, [Tyr^1,Phg^5]N/OFQ(1-13)-NH2] (H-YGGF[Phg]GARKSARK-NH2), for which, at human NOP receptor (Table 2 series), the “NOP pEC50 (CL95%)” value is on record as 7.57 (7.12–8.02) and the “NOP/mu CR (concentration ratio)” value turned out to be 0.17. Also, at human NOP receptor (setting [3]), the Emax is 293 ± 31%. Besides, the “mu pEC50 (CL95%)” value at human mu receptor (Table 2 series) is listed as 6.81 (6.33–7.29). Moreover, on human mu receptor (setting [5]), the Emax is 287 ± 48%.
On to `Cc1cc(O)cc(C)c1C[C@H](N)C(=O)NCC(=O)NCC(=O)N[C@@H](Cc1ccccc1)C(=O)N[C@H](C(=O)NCC(=O)N[C@@H](C)C(=O)N[C@@H](CCCNC(=N)N)C(=O)N[C@@H](CCCCN)C(=O)N[C@@H](CO)C(=O)N[C@@H](C)C(=O)N[C@@H](CCCNC(=N)N)C(=O)N[C@@H](CCCCN)C(N)=O)[C@@H](C)O` [Compound 29, [Dmt^1]N/OFQ(1-13)-NH2, reference compound], for which the results for the maximal response (Emax) at human NOP receptor (setting [1]) and at human mu receptor (setting [2]) were 294 ± 22% and 311 ± 20%, respectively.
`C[C@H](NC(=O)CNC(=O)[C@H](Cc1ccc(F)cc1)NC(=O)[C@H](Cc1ccccc1)NC(=O)CNC(=O)CNC(=O)[C@@H](N)Cc1ccc(O)cc1)C(=O)N[C@@H](CCCNC(=N)N)C(=O)N[C@@H](CCCCN)C(=O)N[C@@H](CO)C(=O)N[C@@H](C)C(=O)N[C@@H](CCCNC(=N)N)C(=O)N[C@@H](CCCCN)C(N)=O` [Compound 21, [Tyr^1,(pF)Phe^5]N/OFQ(1-13)-NH2] (H-YGGF[Phe(4-F)]GARKSARK-NH2): the maximum response (Emax) on human NOP receptor (setting [3]) was found to be 311 ± 22%. Besides, the “mu pEC50 (CL95%)” value on human mu receptor (Table 2 series) is reported as “crc incomplete; 10 μM: 256 ± 55”. Moreover, the pEC50_mu result at human mu receptor is on record as “crc incomplete”. Further, on human mu receptor (setting [4]), the activation at 10 µM turned out to be 256 ± 55%.
